Where two headings read alike, the source gives them in different places. One block for each compound: values may come before it.
Experiments:
HEC/16E6E7 cells = assay: […]-GLO cell viability, drugs alone and in combination (Example 4); type: cell-based
Method: The cell lines were treated with artesunate, vorinostat, and panobinostat individually and in combination. The IC50 values were calculated from the cell viability assays for each drug alone and in combination. […] Cells were then incubated for a 24-hour period to allow them to adhere to the wells. […] For the experiments involving artesunate and panobinostat, the concentrations used varied by cell type. […] After an incubation time of 72 hours, the […]-GLO® Luminescent Cell Viability Assay (Promega) was conducted. The buffer/enzyme solution was mixed and applied to the cells according to the Promega protocol. Cells were then placed on the orbital shaker for 2 minutes and then placed in the luminometer for reading. To analyze the data, the background (from only the DMEM media) was subtracted from the luminescence of each well. […] All readings were normalized based upon the control values. […] Analyses were conducted using GraphPad Prism 9. The combination index and dose-reduction index values were calculated based using the summary of the data for all three cell types. […] Dose reduction values are the measure of how many folds the dose of each drug in a synergistic combination may be reduced compared with the doses of each drug alone. By reducing dose, toxicity is reduced without compromising effect. The values are shown in Table 4 for IC50 and in Table 5 for IC90. […] The methods of analysis are the same as those described above. […] A DMSO experimental stock was made in DMEM as a negative control. […] Analyses were conducted using GraphPad Prism 9. The combination index and dose-reduction index values were calculated based using the summary of the data for all three cell types. […] Dose reduction values are the measure of how many folds the dose of each drug in a synergistic combination may be reduced compared with the doses of each drug alone. By reducing dose, toxicity is reduced without compromising effect. The values are shown in Table 6 for IC50 and in Table 7 for IC90.

HeLa cells [1] = assay: […]-GLO cell viability, artesunate/panobinostat dose pairings, CompuSyn analysis (Example 1); type: cell-based; set-up: key: fraction surviving, normalized to average of untreated controls
Method: To test the combined effects of artesunate and panobinostat, HeLa cells were cultured as previously described. The cells were then seeded in 96-well plates as discussed above. After the 24-hour incubation period, the cells were treated by the following means. […] All possible pairings of each drug concentration were tested. […] All pairings were performed in triplicate and the control was performed in sextuplicate.
After 72 hours of incubation time, the […]-GLO® Luminescent Cell Viability Assay (Promega) was conducted as above. The combination effect of the drugs was analyzed using the CompuSyn program. The background (DMEM only) was subtracted as described previously and all experimental wells were normalized to the average of the controls (as above).

SiHa cells [2] = assay: […]-GLO cell viability, drugs alone and in combination (Example 4); type: cell-based; conditions: Homo sapiens
Method: (§1) The IC50 values were calculated from the cell viability assays for each drug alone and in combination. […] Cells were then incubated for a 24-hour period to allow them to adhere to the wells. […] For the experiments involving artesunate and panobinostat, the concentrations used varied by cell type. […] The buffer/enzyme solution was mixed and applied to the cells according to the Promega protocol. Cells were then placed on the orbital shaker for 2 minutes and then placed in the luminometer for reading. To analyze the data, the background (from only the DMEM media) was subtracted from the luminescence of each well. […] All readings were normalized based upon the control values. […] Analyses were conducted using GraphPad Prism 9. The combination index and dose-reduction index values were calculated based using the summary of the data for all three cell types. […] Dose reduction values are the measure of how many folds the dose of each drug in a synergistic combination may be reduced compared with the doses of each drug alone. […] The values are shown in Table 4 for IC50 and in Table 5 for IC90. […] The methods of analysis are the same as those described above. […] A DMSO experimental stock was made in DMEM as a negative control. […] Analyses were conducted using GraphPad Prism 9. The combination index and dose-reduction index values were calculated based using the summary of the data for all three cell types. […] Dose reduction values are the measure of how many folds the dose of each drug in a synergistic combination may be reduced compared with the doses of each drug alone. […] The values are shown in Table 6 for IC50 and in Table 7 for IC90.

HeLa cells [3] = assay: as above; type: cell-based; conditions: Homo sapiens
Method: as §1

[4] = toxicity to humans; cited from earlier work
[5] = system: HPV 16- and HPV 18-positive cells; conditions: in vitro experiments [7]; cited from earlier work
HPV precancers = conditions: self-administered by patients; published clinical trial [8]; cited from earlier work
SiHa cells [6] = assay: […]-GLO cell viability, single drugs (Example 1); type: cell-based; conditions: Homo sapiens, 72 h, read-out: IC50 Confidence Interval
Description: (§2) To test the individual effects of artesunate and panobinostat, three cervical cancer cell model lines (Caski, SiHa, and HeLa cells) were obtained from the American Type Culture Collection (Manassas, Va.) and maintained in DMEM (Invitrogen) supplemented with 10% fetal bovine serum (Quality Biological, Inc., Gaitherburg, Md.) and penicillin/streptomycin (Invitrogen), in accordance with previous experiments. The cells were split every 3 to 5 days to prevent any of the lines from becoming fully confluent.
(§3) To prepare the cells for treatment, 6000 cells per well were seeded in 96-well plates (for each cell line). Cells were then incubated for a 24-hour period to allow them to adhere to the wells. The cells were then treated with various concentrations of artesunate or panobinostat. For artesunate, the concentrations used for treating each cell type were 80 μM, 40 μM, 20 μM, 10 μM, 5 μM, 2.5 μM, and 1.25 μM. […] Control wells consisted of DMEM, in which the DMSO concentration was the highest drug concentration (0.2% for artesunate, 0.064% for panobinostat) tested. Each concentration was performed in triplicate and the control was conducted in sextuplicate.
(§4) After an incubation time of 72 hours, the […]-GLO® Luminescent Cell Viability Assay (Promega) was conducted. The buffer/enzyme solution was mixed and applied to the cells according to the Promega protocol. Cells were then placed on the orbital shaker for 3 minutes, incubated for 30 minutes, and placed in the luminometer for reading.
(§5) To analyze the data, the background (from only the DMEM media) was subtracted from the luminescence of each well. The program GraphPad Prism 7 was then used to calculate the IC50 values and the cell viability curves for each drug and cell line. All readings were normalized based upon the control values.

HeLa cells [7] = assay: […]-GLO cell viability, single drugs (Example 1); type: cell-based; conditions: 72 h
Description: as §2, §3, §4, §5

Caski cells = assay: […]-GLO cell viability, single drugs (Example 1); type: cell-based; conditions: Homo sapiens, Ca-Ski, 72 h, read-out: IC50 Confidence Interval
Description: as §2, §3, §4, §5

Compound: C[C@H]1[C@H](OC(=O)CCC(=O)O)O[C@@H]2O[C@@]3(C)CC[C@H]4[C@H](C)CC[C@@H]1[C@@]24OO3 [artesunate]
IC50 (HEC/16E6E7 cells; 72 h, read-out: IC50 ART): 4.93 µM
IC90 (HEC/16E6E7 cells; 72 h, read-out: IC90 ART): 77.6 µM
IC50 (HEC/16E6E7 cells; read-out: IC50 ART): 6.99 µM
IC90 (HEC/16E6E7 cells; read-out: IC90 ART): 158 µM
Effect (fraction of HeLa cells still surviving) (HeLa cells [1]; artesunate 1.25 uM alone): 0.7457
Effect (fraction of HeLa cells still surviving) (HeLa cells [1]; artesunate 2.5 uM alone): 0.6418
Effect (fraction of HeLa cells still surviving) (HeLa cells [1]; artesunate 5.0 uM alone): 0.5808
Effect (fraction of HeLa cells still surviving) (HeLa cells [1]; artesunate 10.0 uM alone): 0.4287
Effect (fraction of HeLa cells still surviving) (HeLa cells [1]; artesunate 20.0 uM alone): 0.3015
IC50 (SiHa cells [2]; SiHa, 72 h, read-out: IC50 ART): 4.83 µM
IC90 (SiHa cells [2]; SiHa, 72 h, read-out: IC90 ART): 30 µM
IC50 (SiHa cells [2]; SiHa, read-out: IC50 ART): 6.06 µM
IC90 (SiHa cells [2]; SiHa, read-out: IC90 ART): 34.5 µM
IC50 (HeLa cells [3]; HeLa, 72 h, read-out: IC50 ART): 3.7 µM
IC90 (HeLa cells [3]; HeLa, 72 h, read-out: IC90 ART): 14.3 µM
IC50 (HeLa cells [3]; HeLa, read-out: IC50 ART): 4.55 µM
IC90 (HeLa cells [3]; HeLa, read-out: IC90 ART): 15.5 µM
safety relative to artemether [4]: twice as safe as artemether
toxicity relative to chloroquinine [4]: one-fiftieth as toxic as chloroquinine
killing of HPV-positive cells [5]: selectively kill
cure of HPV precancers (HPV precancers): 70%
IC50 (SiHa cells [6]): 6.8 to 9.43 µM
IC50 (HeLa cells [7]; Homo sapiens, drug alone): ~5 µM
IC50 (HeLa cells [7]; Homo sapiens, read-out: IC50 Confidence Interval, HeLa, 95% confidence interval): 4.33 to 6.07 µM
IC50 (HeLa cells [7]; drug alone): 5.13 µM
IC50 (Caski cells): 1.74 to 3.14 µM

IC50 (HeLa cells [3]; Hela, PAN alone, 72 h, read-out: IC50 PAN): 14.7 µM
IC90 (HeLa cells [3]; Hela, PAN alone, 72 h, read-out: IC90 PAN): 60.5 µM
IC50 (HeLa cells [7]; Homo sapiens, 95% confidence interval, read-out: IC50 Confidence Interval): 0.00771 to 0.0132 µM
IC50 (HeLa cells [7]; Homo sapiens, drug alone, read-out: IC50): ~0.01 µM
IC50 (HeLa cells [7]; drug alone, read-out: IC50): 0.0101 µM
IC50 (Caski cells; Caski, 95% confidence interval): 0.00655 to 0.0125 µM
Compound: Cc1[nH]c2ccccc2c1CCNCc1ccc(/C=C/C(=O)NO)cc1 [panobinostat]
IC50 (HEC/16E6E7 cells; HEC/16E6E7, PAN alone, 72 h, read-out: IC50 PAN): 25 µM
IC90 (HEC/16E6E7 cells; HEC/16E6E7, PAN alone, 72 h, read-out: IC90 PAN): 115 µM
Effect (fraction of HeLa cells still surviving) (HeLa cells [1]; panobinostat 2.5 nM alone): 0.7864
Effect (fraction of HeLa cells still surviving) (HeLa cells [1]; panobinostat 5.0 nM alone): 0.7379
Effect (fraction of HeLa cells still surviving) (HeLa cells [1]; panobinostat 10.0 nM alone): 0.6177
Effect (fraction of HeLa cells still surviving) (HeLa cells [1]; panobinostat 20.0 nM alone): 0.4359
Effect (fraction of HeLa cells still surviving) (HeLa cells [1]; panobinostat 40.0 nM alone): 0.3322
IC50 (SiHa cells [2]; Siha, PAN alone, 72 h, read-out: IC50 PAN): 17.8 µM
IC90 (SiHa cells [2]; Siha, PAN alone, 72 h, read-out: IC90 PAN): 67.6 µM
IC50 (SiHa cells [6]; 95% confidence interval): 0.0199 to 0.0257 µM

IC90 (HeLa cells [3]; Hela, SAHA alone, read-out: IC90 SAHA): 6.5 µM
Compound: O=C(CCCCCCC(=O)Nc1ccccc1)NO [vorinostat]
IC50 (HEC/16E6E7 cells; HEC/16E6E7, SAHA alone, read-out: IC50 SAHA): 2.31 µM
IC90 (HEC/16E6E7 cells; HEC/16E6E7, SAHA alone, read-out: IC90 SAHA): 8.54 µM
IC90 (SiHa cells [2]; Siha, SAHA alone, read-out: IC90 SAHA): 13.2 µM

— patent US20230233520A1, “COMBINATION THERAPY OF ARTEMISININ-RELATED COMPOUNDS AND HISTONE DEACETYLASE INHIBITORS FOR TREATMENT OF HPV-RELATED BENIGN, PREMALIGNANT, AND MALIGNANT DISEASES” (Georgetown University, priority 2020, published 2023)
